Where two headings read alike, the source gives them in different places.
Experiments:
H322 NSCLC cell line [1] = assay: Cellular growth inhibition (CellTiter Glo viability assay); format: cell-based; conditions: Homo sapiens, NCI-H322, 96 h; read-out: GI50 this paper
[2] = tested on: MDA-MB-231 breast cancer cell line; assay: as above; format: cell-based; conditions: Homo sapiens, MDA-MB-231, 96 h; read-out: GI50 this paper
[3] = tested on: MCF7 breast cancer cell line; assay: as above; format: cell-based; conditions: Homo sapiens, MCF7, 96 h; read-out: GI50 this paper
[4] = tested on: HCC1937 breast cancer cell line; assay: as above; format: cell-based; conditions: Homo sapiens, HCC1937, 96 h; read-out: GI50 this paper
H1395 NSCLC cell line = conditions: dasatinib, cited from earlier work
H1568 NSCLC cell line = conditions: dasatinib, cited from earlier work
H157 NSCLC cell line = conditions: dasatinib, cited from earlier work
H1648 NSCLC cell line = conditions: dasatinib, cited from earlier work
H2077 NSCLC cell line = conditions: dasatinib, cited from earlier work
H322 NSCLC cell line [5] = conditions: dasatinib, cited from earlier work
H460 NSCLC cell line = conditions: dasatinib, cited from earlier work
H520 NSCLC cell line = conditions: dasatinib, cited from earlier work
H647 NSCLC cell line = conditions: dasatinib, cited from earlier work
LCLC103H NSCLC cell line = conditions: dasatinib, cited from earlier work
LouNH91 NSCLC cell line = conditions: dasatinib, cited from earlier work
HCC366 NSCLC cell line = conditions: dasatinib, cited from earlier work
HCC4006 NSCLC cell line = conditions: dasatinib, cited from earlier work
H322M NSCLC cell line = conditions: dasatinib, cited from earlier work
HOP62 NSCLC cell line = conditions: dasatinib, cited from earlier work
HCC2279 NSCLC cell line = conditions: dasatinib, cited from earlier work
[6] = tested on: BT-20 breast cancer cell line; conditions: dasatinib, cited from earlier work
[7] = tested on: MDA-MB-231 breast cancer cell line; conditions: dasatinib, cited from earlier work
[8] = tested on: HCC1937 breast cancer cell line; conditions: dasatinib, cited from earlier work
advanced NSCLC = conditions: among thirty-four patients with advanced NSCLC; Johnson, Bekele et al., 2010; cited from earlier work
23 tested kinases = conditions: IVKA; cited from earlier work
[9] = Sos et al. 2009, read-out: GI50 literature
[10] = Huang et al. 2007, read-out: GI50 literature

Cc1nc(Nc2ncc(C(=O)Nc3c(C)cccc3Cl)s2)cc(N2CCN(CCO)CC2)n1 [dasatinib, N-(2-chloro-6-methylphenyl)-2-[[6-[4-(2-hydroxyethyl)piperazin-1-yl]-2-methylpyrimidin-4-yl]amino]-1,3-thiazole-5-carboxamide]
GI50 (H322 NSCLC cell line [1]): 2100 nM | GI50 [2]: 36 nM | GI50 [3]: 3270 nM | GI50 [4]: 82 nM | GI50 (H1395 NSCLC cell line; [9]): 31100 nM | IC50 (H1395 NSCLC cell line; read-out: Class): > 1000 nM | GI50 (H1568 NSCLC cell line; [9]): 898 nM | Sensitivity class (H1568 NSCLC cell line): < 1000 nM | GI50 (H157 NSCLC cell line; [9]): 10500 nM | Sensitivity class (H157 NSCLC cell line): > 1000 nM | GI50 (H1648 NSCLC cell line; [9]): 59.3 nM | Class (H1648 NSCLC cell line): < 1000 nM | GI50 (H2077 NSCLC cell line; [9]): 10100 nM | Sensitivity class (H2077 NSCLC cell line): > 1000 nM | GI50 (H322 NSCLC cell line [5]; [9]): 259 nM | IC50 (H322 NSCLC cell line [5]; read-out: Class): < 1000 nM | GI50 (H460 NSCLC cell line; [9]): 24200 nM | IC50 (H460 NSCLC cell line; read-out: Class): > 1000 nM | GI50 (H520 NSCLC cell line; [9]): 11600 nM | IC50 (H520 NSCLC cell line; read-out: Class): > 1000 nM | GI50 (H647 NSCLC cell line; [9]): 12400 nM | IC50 (H647 NSCLC cell line; read-out: Class): > 1000 nM | GI50 (LCLC103H NSCLC cell line; [9]): 13900 nM | IC50 (LCLC103H NSCLC cell line; read-out: Class): > 1000 nM | GI50 (LouNH91 NSCLC cell line; [9]): 113 nM | IC50 (LouNH91 NSCLC cell line; read-out: Class): < 1000 nM | GI50 (HCC366 NSCLC cell line; [9]): 482 nM | IC50 (HCC366 NSCLC cell line; read-out: Class): < 1000 nM | GI50 (HCC4006 NSCLC cell line; [9]): 838 nM | IC50 (HCC4006 NSCLC cell line; read-out: Class): < 1000 nM | GI50 (H322M NSCLC cell line; [9]): 81.9 nM | IC50 (H322M NSCLC cell line; read-out: Class): < 1000 nM | GI50 (HOP62 NSCLC cell line; [9]): 12800 nM | IC50 (HOP62 NSCLC cell line; read-out: Class): > 1000 nM | GI50 (HCC2279 NSCLC cell line; [9]): 139 nM | IC50 (HCC2279 NSCLC cell line; read-out: Class): < 1000 nM | GI50 [6, 10]: 165 nM | IC50 ([6]; read-out: Class): < 1000 nM | GI50 [7, 10]: 9.5 nM | Sensitivity class [7]: < 1000 nM | GI50 [8, 10]: 70 nM | Sensitivity class [8]: < 1000 nM | metabolic responses (advanced NSCLC): eleven | partial response (advanced NSCLC): one

CN1CCN(CCOc2cc(OC3CCOCC3)c3c(Nc4c(Cl)ccc5c4OCO5)ncnc3c2)CC1 [saracatinib, N-(5-Chloro-1,3-benzodioxol-4-yl)-7-[2-(4-methyl-1-piperazinyl)ethoxy]-5-[(tetrahydro-2H-pyran-4-yl)oxy]-4-quinazolinamine]
number of tested kinases submicromolar (23 tested kinases): 13 of 23 tested submicromolar

Reference: US9328386B2, “Markers for susceptibility to an inhibitor of an Src-family kinase” (Evotec (München) GmbH, priority 2011, dated 2016)
